In data set [1] the test system is PC-9. In words: Antitumor activity in gefitinib-resistant human PC-9 cells xenografted Sprague-Dawley mouse at 40 mg/kg assessed as tumor growth inhibition administered for 5 days. The class given is functional. Also noted: scale not given: the % may be the effect or the level left. Particulars: time 5 day. (A xenograft is tissue or cells of one species grown in another, often human tumour cells in immunodeficient mice.)

In data set [2] the test system is NCI-H1650. The experiment in a line: Cytotoxicity activity against drug-sensitive human NCI-H1650 cells assessed as reduction in cell viability measured after 72 hrs by MTT assay. It is filed as functional, cell-based. Conditions: NCI-H1650, 72 h. (Tetrazolium dyes change colour on reduction, which living cells bring about.)
For data set [3], the system named is NCI-H1650. In words: Antitumor activity in human NCI-H1650 cells xenografted Sprague-Dawley mouse at 40 mg/kg assessed as tumor growth inhibition administered for 5 days. It is filed as functional. Also noted: scale not given: the % may be the effect or the level left. Conditions: time 5 day.
Data set [4] relates to NCI-H1975. In words: Antitumor activity in human NCI-H1975 cells xenografted Sprague-Dawley mouse at 40 mg/kg assessed as tumor growth inhibition administered for 5 days. The class given is functional. Set-up: scale not given: the % may be the effect or the level left. Conditions: time 5 day.
In data set [5] the test system is CCRF-CEM. In words: Cytotoxicity against drug-sensitive human CCRF-CEM cells assessed as reduction in cell viability measured after 72 hrs by MTT assay. It is filed as functional, cell-based.
For data set [6], the system named is NCI-H460. The experiment in a line: Antitumor activity in human NCI-H460 cells xenografted […] mouse at 40 mg/kg assessed as tumor growth inhibition. The class given is functional. Also noted: scale not given: the % may be the effect or the level left.
The subject of data set [7] is SW-620. In words: Cytotoxicity against human SW620 cells assessed as reduction in cell viability measured after 48 hrs by SRB assay. The class given is functional, cell-based. Conditions: SW-620, 48 h. For orientation: In SRB staining, fixed cells bind dye roughly in proportion to their protein.
In data set [8] the test system is MCF7. The experiment in a line: Cytotoxicity against human MCF7 cells assessed as reduction in cell viability measured after 48 hrs by SRB assay. The class given is functional, cell-based. Conditions: MCF7, 48 h.
Data set [9] has as its system DLD-1. The experiment in a line: Cytotoxicity against human DLD-1 cells assessed as reduction in cell viability measured after 48 hrs by SRB assay. Particulars: DLD-1, 48 h. It is filed as functional, cell-based.
In data set [10] the test system is SK-OV-3. The experiment in a line: Cytotoxicity against human SK-OV-3 cells assessed as reduction in cell viability measured after 48 hrs by SRB assay. Particulars: SK-OV-3, 48 h. It is filed as functional, cell-based.
For data set [11], the system named is A549. The experiment in a line: Antiproliferative activity against multi-drug resistant human A549 cells assessed as reduction in cell viability. It is filed as functional, cell-based.
In data set [12] the test system is Epidermoid carcinoma cell line. In words: Cytotoxicity activity against vincristine-resistant human Epidermoid carcinoma cell line assessed as reduction in cell growth. It is filed as functional, cell-based.
Data set [13] concerns KB. In words: Cytotoxicity activity against vincristine-resistant human KB cells assessed as reduction in cell growth. It is filed as functional, cell-based.
Data set [14] can be described thus: Cytotoxicity against human HUVEC cells assessed as reduction in cell viability incubated for 2 hrs by MTT assay. It is filed as toxicity, cell-based.
Data set [15] relates to K562/A02. The experiment in a line: Antiproliferative activity against human K562/A02 cells assessed as reduction in cell viability measured after 2 days by MTT assay. It is filed as functional, cell-based. Particulars: K562/A02, 48 h.
In data set [16] the test system is KB. In words: Antiproliferative activity against human KB cells assessed as reduction in cell growth incubated for 2 days by MTT assay. The class given is functional, cell-based. Particulars: 48 h.
A short description of data set [17]: Cytotoxicity against human hypertrophic scar Fibroblast cells assessed as inhibition of cell growth incubated for 2 hrs by MTT assay. It is filed as toxicity, cell-based.
In data set [18] the test system is K562. The experiment in a line: Cytotoxicity activity against […] human K562 cells assessed as reduction in cell viability measured after 72 hrs by CCK-8 assay. It is filed as functional, cell-based. Particulars: K562, 72 h.
The test system of data set [19] is K562/Adr. In words: Cytotoxicity activity against doxorubicin-resistant human K562/Adr cells assessed as reduction in cell viability measured after 72 hrs by CCK-8 assay. The class given is functional, cell-based.
Data set [20] concerns K562. The experiment in a line: Antiproliferative activity against human K562 cells assessed as reduction in cell growth measured after 24 hrs by CCK-8 assay. It is filed as functional, cell-based. Particulars: K562, 24 h.
Data set [21] relates to HT-29. In words: Cytotoxicity activity against human HT-29 cells assessed as reduction in cell viability by SRB assay. It is filed as functional, cell-based.
In data set [22] the test system is PC-3. The experiment in a line: Cytotoxicity activity against human PC-3 cells assessed as reduction in cell viability by MTT assay. It is filed as functional, cell-based.
Data set [23] has as its system H69AR. In words: Antiproliferative activity against multi-drug resistant human NCI-H69AR assessed as reduction in cell viability. It is filed as functional, cell-based.
Data set [24] deals with HT-29. The experiment in a line: Antiproliferative activity against drug-sensitive human HT-29 cells assessed as reduction in cell viability by MTT assay. The class given is functional, cell-based.
Data set [25] in a line: Selectivity index, ratio of IC50 for antiproliferative activity against human MCF-10A cells to IC50 for antiproliferative activity against […] cells by MTT assay. Conditions: MCF-10A cells and IEC-6 cells, read-out: Selectivity Index. It is filed as toxicity, cell-based.
Data set [26] has as its system H69AR. In words: Antiproliferative activity against multidrug resistant human NCI-H69AR assessed as inhibition of cell proliferation by MTT assay. It is filed as functional, cell-based.
Data set [27] has as its system MCF-10A. The experiment in a line: Antiproliferative activity against human MCF-10A cells assessed as reduction in cell viability measured after 48 hrs by MTT assay. It is filed as functional, cell-based.
The test system of data set [28] is HT-29. The experiment in a line: Antiproliferative activity against human HT-29 cells assessed as reduction in cell viability celltiter-Glo assay. The class given is functional, cell-based.
Data set [29] deals with ZR-75-1. In words: Antiproliferative activity against multi-drug resistant human ZR-75-1 cells assessed as reduction in cell viability. It is filed as functional, cell-based.
In data set [30] the test system is ZR-75-1. In words: Antiproliferative activity against human ZR-75-1 cells assessed as reduction in cell viability celltiter-Glo assay. It is filed as functional, cell-based.
The test system of data set [31] is MCF7. In words: Antiproliferative activity against human MCF7 cells assessed as inhibition of cell proliferation incubated for 72 hrs by MTT assay. The class given is functional, cell-based. Conditions: MCF7, 72 h.
Data set [32] in a line: Antiproliferative activity against human KB-VIN cells assessed as reduction in cell viability measured after 72 hrs by SRB assay. The class given is functional, cell-based. Conditions: KBVIN.
The test system of data set [33] is A549. The experiment in a line: Antiproliferative activity against human A549 cells assessed as inhibition of cell growth measured after 72 hrs by SRB assay. The class given is functional, cell-based. Particulars: A549, 72 h.
Data set [34] concerns A549. In words: Cytotoxicity activity against human A549 cells assessed as reduction in cell viability by SRB assay. The class given is functional, cell-based.

This is an account of results in ChEMBL document CHEMBL5260847, “Current scenario of indole derivatives with potential anti-drug-resistant cancer activity” (Eur J Med Chem, 2020).

For the compound `CCc1c(CO)c(CO)c2n1Cc1c(c3ccccc3n1C)C2`, the Activity is listed as 73% in data set [1], 30% in data set [3], 26% in [4] and 65% in data set [6]. For the same compound, the IC50 (in general, the concentration at which inhibition is half-maximal) in [2] amounted to 3.5 µM; in data set [5], 0.41 µM.

`COc1ccc(C(=O)/C=C/c2nccc3c2[nH]c2ccccc23)cc1OC`: the 50% inhibitory concentration (IC50) is 10 µM in [7], 1.25 µM in data set [8], 2.5 µM in data set [9] and 5 µM in data set [10].

For `CCOC(=O)c1c(-c2ccc(F)cc2)oc2ccc(OCCCCCCN3C(=O)C(=O)c4cc(OC)ccc43)cc12`, the IC50 in data set [11] worked out at 76.9 µM.

Turning to `CCOC(=O)c1c(-c2ccccc2)oc2ccc(OCCCCCCN3C(=O)C(=O)c4ccccc43)cc12`, in data set [11], the half-maximal inhibitory concentration (IC50) stood at 47.6 µM.

`CC[C@@]12CC(C(=O)OC)=C3N=C4C(=CC(=O)C(O)=C4OC)[C@@]34CCN([C@@H]3c5cc6c(cc5O[C@@H]3[C@H]1O)NC1=C(C(=O)OC)C[C@]3(CC)[C@@H]5O[C@@H]5CN5CC[C@@]16[C@@H]53)[C@H]42`: the IC50 in data set [12] is 2.9 µM; in data set [13] it was 0.01 µM.

`COc1ccc2[nH]cc(C(=O)C(=O)N[C@@H]3c4cc5c(cc4[C@@H](c4cc(OC)c(OC)c(OC)c4)[C@H]4C(=O)OC[C@@H]43)OCO5)c2c1`: the IC50 at 2 h in [14] stood at 15.1 µM; in data set [17] it was 26.1 µM. The figures for the 50% inhibitory concentration (IC50) in data set [15] and in [16] were 4.71 µM and 1.01 µM, respectively.

Turning to `COc1cc([C@@H]2c3cc4c(cc3[C@H](OC(=O)c3ccc5cc[nH]c5c3)[C@H]3COC(=O)[C@H]23)OCO4)cc(OC)c1OC`, the IC50 in data set [18] turned out to be 0.019 µM; in data set [19] it was 0.245 µM; in [20] it was 0.043 µM.

Consider `C/C=C1/CN2[C@H]3C[C@@H]1C(CO)[C@@H]2Cc1c3n(C)c2cc(C[C@H]3[C@@H]4C[C@H]5c6c(c7ccccc7n6C)C[C@@H]([C@@H]4CO[C@]3(C)OC)N5C)c(OC)cc12` (stereo partly drawn), for which the IC50 in data set [21] was 0.02 µM.

In the case of `C/C=C1\CN2CC[C@@]34c5c(ccc6c5OC5OC[C@@H]7[C@@H](C[C@H]8c9c(c%10ccccc%10n9C)C[C@@H]7N8C)[C@@H]5[C@@H]6C)N(C)[C@H]3[C@@H]2C[C@H]1[C@@H]4C(=O)OC` (stereo partly drawn), the IC50 stood at 7.2 µM in [22] and 0.3 µM in data set [21].

`O=C1Nc2ccc(Cl)cc2/C1=N/N=C/c1ccn[nH]1`: the IC50 in data set [23] is 16.6 µM; in data set [24], 5.87 µM; in data set [26], 16 µM; in [27], 3.42 µM; in data set [28], 2.75 µM; in data set [29], 1.37 µM. Besides, the IC50 in [30] came out at 1.37 µM. Moreover, the selectivity ratio in data set [25] came out at 1.6.

Turning to `CC[C@@H]1C[C@@H]2CN3CCc4c([nH]c5c([C@H]6CC7[C@]8(O[C@@H]8C)[C@@H]8OC[C@@]7(C(=O)OC)[C@H](Cc7c6[nH]c6ccccc76)N8C)c(OC)ccc45)[C@@](C(=O)OC)(C2)[C@@H]13`, the IC50 in data set [31] is 12.9 µM; in data set [32], 2.6 µM; in [33] it was 3.1 µM; in data set [34] it was 4.8 µM.

With `C/C=C1\CN(C)[C@H]2Cc3c([nH]c4ccccc34)[C@@H](c3ccc4[nH]c5c(c4c3OC)CCN3C[C@H]4CC[C@H]5[C@H]3[C@@H]4CC)C[C@H]1[C@@H]2C(=O)OC`, the IC50 in [21] amounted to 0.93 µM; in data set [34], 6.8 µM.
